From ChEMBL document CHEMBL5385875, “Tumor killing by a dietary curcumin mono-carbonyl analog that works as a selective ROS generator via TrxR inhibition” (Eur J Med Chem, 2023)
Calls of active or inactive are those of the source.

Key:
NCI-H460 [1] = assay: Cytotoxicity against human NCI-H460 cells assessed as reduction in cell viability incubated for 48 hrs by MTT assay; format: functional, cell-based; settings: NCI-H460, 48 h
A549 = assay: Cytotoxicity against human A549 cells assessed as reduction in cell viability incubated for 48 hrs by MTT assay; format: functional, cell-based; settings: A549, 48 h
HepG2 = assay: Cytotoxicity against human HepG2 cells assessed as reduction in cell viability incubated for 48 hrs by MTT assay; format: functional, cell-based; settings: HepG2, 48 h
[2] = Cytotoxicity against human MRC5 cells assessed as reduction in cell viability incubated for 48 hrs by MTT assay; format: toxicity, cell-based
NCI-H460 [3] = assay: Cytotoxicity against human NCI-H460 cells assessed as reduction in cell viability at 0.5 to 2 uM incubated for 48 hrs in presence of N-acetylcysteine by MTT assay; format: functional, cell-based; settings: dose 0.5-2 µM
NCI-H460 [4] = assay: Induction of intracellular ROS accumulation in human NCI-H460 cells incubated for 1 to 12 hrs by DCFH-DA dye based fluorescence assay; format: functional, cell-based; settings: dose 0.5-2 µM, time 1-12 hrs
NCI-H460 [5] = assay: Induction of intracellular ROS accumulation in human NCI-H460 cells at 0.5 to 2 uM by DCFH-DA dye based fluorescence assay; format: functional, cell-based; settings: dose 0.5-2 µM, time 1-12 hrs, TDE = time-dependent effect
MRC5 [6] = assay: Induction of intracellular ROS accumulation in human MRC5 cells at upto 2 uM incubated for 6 hrs by DCFH-DA dye based fluorescence assay; format: functional, cell-based
NCI-H460 [7] = assay: Cytotoxicity against human NCI-H460 cells assessed as reduction in cell viability at 0.5 to 1 uM measured after 48 hrs in presence of Z-VAD-fmk by MTT assay; format: functional, cell-based; settings: dose 0.5-1 µM
NCI-H460 [8] = assay: Cytotoxicity against human NCI-H460 cells assessed as reduction in cell viability at 0.5 to 1 uM measured after 48 hrs in presence of ferrostatin-1 by MTT assay; format: functional, cell-based; settings: dose 0.5-1 µM
NCI-H460 [9] = assay: Cytotoxicity against human NCI-H460 cells assessed as reduction in cell viability at 0.5 to 1 uM measured after 48 hrs in presence of necrostatin-1 by MTT assay; format: functional, cell-based; settings: dose 0.5-1 µM
NCI-H460 [10] = assay: Cytotoxicity against human NCI-H460 cells assessed as reduction in cell viability at 0.5 to 1 uM measured after 48 hrs in presence of 3-methuladenine by MTT assay; format: functional, cell-based; settings: dose 0.5-1 µM
NCI-H460 [11] = assay: Induction of apoptosis in human NCI-H460 cells assessed as reduction of mitochondrial membrane potential incubated for 12 to 36 hrs by JC-1 staining based flow cytometry analysis; format: functional, cell-based; settings: dose 0.5-2 µM, time 12-36 hrs
NCI-H460 [12] = assay: Induction of apoptosis in human NCI-H460 cells assessed as reduction of mitochondrial membrane potential at 0.5 to 2 uM by JC-1 staining based flow cytometry analysis; format: functional, cell-based; settings: dose 0.5-2 µM, time 12-36 hrs, TDE = time-dependent effect
NCI-H460 [13] = assay: Downregulation of Bcl-2 expression in human NCI-H460 cells at 1 to 2 uM measured after 48 hrs in presence of NAC by immunoblot analysis; format: functional, cell-based; settings: dose 1-2 µM
NCI-H460 [14] = assay: Upregulation of Bax expression in human NCI-H460 cells at 1 to 2 uM measured after 48 hrs in presence of NAC by immunoblot analysis; format: functional, cell-based; settings: dose 1-2 µM
NCI-H460 [15] = assay: Upregulation of caspase-9 activation in human NCI-H460 cells at 1 to 2 uM measured after 48 hrs in presence of NAC by immunoblot analysis; format: functional, cell-based; settings: dose 1-2 µM
NCI-H460 [16] = assay: Upregulation of caspase-3 activation in human NCI-H460 cells at 1 to 2 uM measured after 48 hrs in presence of NAC by immunoblot analysis; format: functional, cell-based; settings: dose 1-2 µM
NCI-H460 [17] = assay: Induction of ferroptosis in human NCI-H460 cells assessed as increase in MDA levels at 2 uM measured after 40 hrs in presence of NAC by MDA assay; format: functional, cell-based
NCI-H460 [18] = assay: Induction of ferroptosis in human NCI-H460 cells assessed as increase in intracellular […] by measuring increase in red fluorescence intensity at 0.5 uM incubated for 40 hrs in presence of NAC by C11-BODIPY staining based microscopy analysis; format: functional, cell-based
MRC5 [19] = assay: Induction of ferroptosis in human MRC5 cells assessed as increase in intracellular […] by measuring increase in red fluorescence intensity at 2 uM incubated for 40 hrs by C11-BODIPY staining based microscopy analysis; format: functional, cell-based
NCI-H460 [20] = assay: Induction of ferroptosis in human NCI-H460 cells assessed as increase in MDA levels at 2 uM measured after 40 hrs in presence of Fer-1 by MDA assay; format: functional, cell-based
NCI-H460 [21] = assay: Induction of ferroptosis in human NCI-H460 cells assessed as reduction in GPX4 protein expression at 1 to 2 uM measured after 24 hrs in presence of NAC by immunoblot analysis; format: functional, cell-based; settings: dose 1-2 µM
NCI-H460 [22] = assay: Antitumor activity against human NCI-H460 cells xenografted in BALB/c nude mouse assessed as inhibition of tumor formation administered as IP dose and measured every two days for 27 days; format: functional; settings: dose 5-15 mg/kg, time 27.0 day
[23] = Toxicity in BALB/c nude mouse assessed as effect on animal activity at 5 to 15 mg/kg, ip measured every two days for 27 days; format: organism-based; settings: in vivo, 648 h, dose 5-15 mg/kg, time 27 day
[24] = Toxicity in BALB/c nude mouse assessed as effect on spleen at 5 to 15 mg/kg, ip measured every two days for 27 days; format: organism-based; settings: in vivo, 648 h, dose 5-15 mg/kg, time 27 day
[25] = Toxicity in BALB/c nude mouse assessed as effect on lung at 5 to 15 mg/kg, ip measured every two days for 27 days; format: organism-based; settings: in vivo, 648 h, dose 5-15 mg/kg, time 27 day
[26] = Toxicity in BALB/c nude mouse assessed as effect on liver at 5 to 15 mg/kg, ip measured every two days for 27 days by H and E staining based analysis; format: organism-based; settings: in vivo, 648 h, dose 5-15 mg/kg, time 27 day
NCI-H460 [27] = assay: Induction of ROS accumulation in human NCI-H460 cells assessed as reduction in GSH levels by measuring yellow green fluorescence incubated for 9 hrs by fluorescence microscope based analysis; format: functional, cell-based
NCI-H460 [28] = assay: Induction of ROS accumulation in human NCI-H460 cells assessed as reduction in GSH levels by measuring yellow green fluorescence incubated for 9 hrs in presence of NAC by fluorescence microscope based analysis; format: functional, cell-based
MRC5 [29] = assay: Induction of ROS accumulation in human MRC5 cells assessed as reduction in GSH levels by measuring yellow green fluorescence incubated for 9 hrs by fluorescence microscope based analysis; format: functional, cell-based
[30] = molecular target: Thioredoxin reductase (Homo sapiens) (UniProt Q16881+Q9NNW7+Q86VQ6); assay: Inhibition of TrxR in human NCI-H460 cells at 2 uM measured after 6 hrs by DTNB reduction assay relative to control; format: cell-based
[31] = Inhibition of TrxR protein expression in human NCI-H460 cells at 2 uM measured after 6 hrs by immunoblot analysis relative to control; format: functional
NCI-H460 [32] = assay: Antitumor activity against human NCI-H460 cells xenografted in BALB/c nude mouse assessed as induction of […] at 5 to 15 mg/kg by TUNEL staining based analysis; format: functional, organism-based; settings: dose 5-15 mg/kg
NCI-H460 [33] = assay: Antitumor activity against human NCI-H460 cells xenografted in BALB/c nude mouse assessed as downregulation of GPX4 expression at 5 to 15 mg/kg by immunohistochemical staining based analysis; format: functional, organism-based; settings: dose 5-15 mg/kg

O=C1/C(=C/c2cccc(C(F)(F)F)c2)CNC/C1=C\c1cccc(C(F)(F)F)c1
14.1 µM: IC50 at 48 h [2]
0.44 µM: IC50 (NCI-H460 [1])
59%: inhibition [30]
5.8 µM: IC50 (A549)
Non-Toxic: Activity [23] | Activity [24] | Activity [25] | Activity [26]
inactive: Activity (NCI-H460 [3]) | Activity (MRC5 [6]) | Activity (NCI-H460 [9]) | Activity (NCI-H460 [10]) | Activity (NCI-H460 [13]) | Activity (NCI-H460 [14]) | Activity (NCI-H460 [15]) | Activity (NCI-H460 [16]) | Activity (NCI-H460 [17]) | Activity (NCI-H460 [18]) | Activity (MRC5 [19]) | Activity (NCI-H460 [20]) | Activity (NCI-H460 [21]) | Activity (NCI-H460 [28]) | Activity (MRC5 [29])
active: Activity (NCI-H460 [4]) Dose-Dependent Effect | Activity (NCI-H460 [5]) Tde | Activity (NCI-H460 [7]) | Activity (NCI-H460 [8]) | Activity (NCI-H460 [11]) Dose-Dependent Effect | Activity (NCI-H460 [12]) Tde | Activity (NCI-H460 [22]) Dose-Dependent Effect | Activity (NCI-H460 [27]) Dose-Dependent Effect | Activity (NCI-H460 [32]) | Activity (NCI-H460 [33])
0.67 µM: IC50 (HepG2)
69%: inhibition at 2 µM [31]
